Experimental data published in ChEMBL document CHEMBL1817566, “Halogen-substituted (C-β-D-glucopyranosyl)-hydroquinone regioisomers: synthesis, enzymatic evaluation and their binding to glycogen phosphorylase” (Bioorg Med Chem, 2011).

Target: T1, Glycogen phosphorylase, muscle form (Oryctolagus cuniculus, UniProt P00489)
T1 sequence (P00489 whole entry): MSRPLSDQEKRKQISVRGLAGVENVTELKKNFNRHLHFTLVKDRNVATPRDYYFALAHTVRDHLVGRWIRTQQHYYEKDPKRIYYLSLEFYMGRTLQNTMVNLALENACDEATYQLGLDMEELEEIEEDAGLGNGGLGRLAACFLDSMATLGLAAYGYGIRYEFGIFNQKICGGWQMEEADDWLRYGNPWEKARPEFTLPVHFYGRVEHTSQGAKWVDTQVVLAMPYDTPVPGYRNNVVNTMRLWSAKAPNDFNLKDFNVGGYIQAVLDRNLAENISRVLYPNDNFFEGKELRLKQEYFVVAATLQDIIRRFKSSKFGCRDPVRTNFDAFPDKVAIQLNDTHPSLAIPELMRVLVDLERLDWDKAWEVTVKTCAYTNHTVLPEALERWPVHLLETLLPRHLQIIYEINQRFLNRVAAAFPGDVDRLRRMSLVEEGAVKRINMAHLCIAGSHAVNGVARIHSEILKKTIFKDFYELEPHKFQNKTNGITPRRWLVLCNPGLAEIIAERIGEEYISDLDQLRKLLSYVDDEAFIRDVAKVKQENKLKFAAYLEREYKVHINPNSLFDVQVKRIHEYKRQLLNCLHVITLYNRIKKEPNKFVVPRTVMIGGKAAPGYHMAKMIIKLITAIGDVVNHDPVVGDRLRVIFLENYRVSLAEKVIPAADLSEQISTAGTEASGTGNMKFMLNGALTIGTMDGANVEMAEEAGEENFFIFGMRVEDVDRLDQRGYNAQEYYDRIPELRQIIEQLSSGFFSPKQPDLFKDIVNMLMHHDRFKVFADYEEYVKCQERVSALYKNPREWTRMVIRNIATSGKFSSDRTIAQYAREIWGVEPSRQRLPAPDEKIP
Experiment: Competitive inhibition of rabbit muscle glycogen phosphorylase b assessed as inorganic phosphate release using alphaD glucose-1-phosphate as substrate at pH 6.8 by spectrophotometric analysis
Design: species or system Muscle tissue

IC50 | Ki | SMILES
977 µM | 900 µM | OC[C@H]1O[C@@H](c2cc(O)ccc2O)[C@H](O)[C@@H](O)[C@@H]1O
95 µM |  | OC[C@H]1O[C@@H](c2cc(O)cc(Cl)c2O)[C@H](O)[C@@H](O)[C@@H]1O
 | 1300 µM | O=C1C=CC(=O)C([C@@H]2O[C@H](CO)[C@@H](O)[C@H](O)[C@H]2O)=C1
